The results in this text go back to patent USRE39496E1, “Kahalalide F and compositions and uses thereof” (PharmaMar, S.A., priority 1993, dated 2007).

Experiment [1] deals with human lung carcinoma A-549. Briefly: In vitro cytotoxicity, A-549 cell culture. It is filed as cell-based. To be noted: A-549 cells. Here is the method: (§1) The antitumor activities of this compound has been determined “in vitro” in cell cultures of human lung carcinoma A-549 and human colon carcinoma HT-29. The procedure was carried out using the metnhodology methodology described by Raymond J. Bergeron et al. Biochem. Bioph. Res. Comm. 1984, 121(3), 848-854 and by Alan C. Schroeder et al. J. Med. Chem. 1981, 24 1078-1083.

Experiment [2] concerns human colon carcinoma HT-29. The experiment in a line: In vitro cytotoxicity, HT-29 cell culture. It is filed as cell-based. To be noted: HT-29 cells. Here is the method: as §1
The subject of another experiment is HSV II. To be noted: Mv 2 Lu cells / HSV II; concentration giving the printed % reduction.
In another experiment the test system is HSV-1. The following applies: CV-1 cells / HSV-1.
For another experiment, the system named is Aspergillus oryzae. The following applies: 50 μg/disk.
The next experiment has as its system Penicillium notatum. To be noted: 50 μg/disk.
The test system of a further experiment is Tricophyton mentagrophy. The following applies: 50 μg/disk.
A further experiment relates to Saccharomyces cerevisiac. To be noted: 50 μg/disk.
A further experiment concerns Candida albicans. The following applies: 50 μg/disk.

Take `C/C=C1\NC(=O)[C@H](Cc2ccccc2)NC(=O)[C@@H](C(C)C)NC(=O)[C@@H]([C@@H](C)CC)NC(=O)[C@H](NC(=O)[C@H](NC(=O)[C@H](CCCN)NC(=O)[C@H]2CCCN2C(=O)[C@H](NC(=O)[C@@H](NC(=O)[C@@H](NC(=O)[C@H](NC(=O)CCCC(C)C)C(C)C)[C@@H](C)O)C(C)C)C(C)C)[C@@H](C)CC)[C@@H](C)OC(=O)[C@H](C(C)C)NC1=O` [Kahalalide F]: the “Cytoxicity (IC50)” value was 2.5 µg/mL in experiment [1] and 0.25 to 0.5 µg/mL in experiment [2]. The “Antiviral” value with HSV II was 0.5 µg/mL; with HSV-1, greater than 8 µg/mL; in the experiment on VSV, greater than 8 µg/mL. The “Antifungal 6 mm disk” value with Aspergillus oryzae is given as 19 mm; in the experiment with Penicillium notatum it was 26 mm; in the experiment on Tricophyton mentagrophy, 34 mm; with Saccharomyces cerevisiac, “neg”; with Candida albicans, 16 mm.
